Test results published in ChEMBL document CHEMBL1141625, “Potent, selective MCH-1 receptor antagonists” (Bioorg Med Chem Lett, 2008).
pEC50, pKi: −log10 of the molar value.

molecular target: Sodium-dependent dopamine transporter (Homo sapiens) (UniProt Q01959); experiment: Inhibition of DAT at 10 uM; conditions: not given
Sequence (Q01959 whole entry): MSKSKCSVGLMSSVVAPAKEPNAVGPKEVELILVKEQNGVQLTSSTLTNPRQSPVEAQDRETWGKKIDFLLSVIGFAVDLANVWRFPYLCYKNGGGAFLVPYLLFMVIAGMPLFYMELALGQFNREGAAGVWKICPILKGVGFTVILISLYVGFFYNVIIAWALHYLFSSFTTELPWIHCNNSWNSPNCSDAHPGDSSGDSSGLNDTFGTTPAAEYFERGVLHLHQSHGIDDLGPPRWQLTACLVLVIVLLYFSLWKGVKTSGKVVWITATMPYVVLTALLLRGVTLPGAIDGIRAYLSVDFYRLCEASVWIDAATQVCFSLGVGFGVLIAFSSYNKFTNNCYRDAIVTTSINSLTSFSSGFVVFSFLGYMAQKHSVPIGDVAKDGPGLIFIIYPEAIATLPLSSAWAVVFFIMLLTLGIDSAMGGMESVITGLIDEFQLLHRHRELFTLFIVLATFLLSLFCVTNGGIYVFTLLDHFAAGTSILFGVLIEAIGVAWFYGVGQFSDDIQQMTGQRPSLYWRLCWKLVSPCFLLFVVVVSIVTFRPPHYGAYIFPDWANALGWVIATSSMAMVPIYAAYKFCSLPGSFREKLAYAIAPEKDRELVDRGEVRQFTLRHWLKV

Compound | inhibition [%]
COC(=O)Nc1ccc2c(c1)C[C@@H](CN1CC[C@@H](n3c(C)nc4cc(C)ccc43)[C@H](OC)C1)C2 | 65
Cc1ccc2c(c1)nc(C)n2C1CCN(CCCc2cccc(NC(=O)C(C)C)c2)CC1 | 23
CO[C@@H]1CN(C[C@H]2Cc3ccc(C#N)cc3C2)CC[C@H]1n1c(C(C)(C)O)nc2cc(C)ccc21 | -6
CO[C@@H]1CN(C[C@H]2Cc3ccc(Br)cc3C2)CC[C@H]1n1c(C(C)(C)O)nc2cc(C)ccc21 | 68

molecular target: T1, Melanin-concentrating hormone receptor 1 (Homo sapiens, UniProt Q99705); experiment: Binding affinity to MCHR1; conditions: not given
T1 sequence (Q99705 whole entry): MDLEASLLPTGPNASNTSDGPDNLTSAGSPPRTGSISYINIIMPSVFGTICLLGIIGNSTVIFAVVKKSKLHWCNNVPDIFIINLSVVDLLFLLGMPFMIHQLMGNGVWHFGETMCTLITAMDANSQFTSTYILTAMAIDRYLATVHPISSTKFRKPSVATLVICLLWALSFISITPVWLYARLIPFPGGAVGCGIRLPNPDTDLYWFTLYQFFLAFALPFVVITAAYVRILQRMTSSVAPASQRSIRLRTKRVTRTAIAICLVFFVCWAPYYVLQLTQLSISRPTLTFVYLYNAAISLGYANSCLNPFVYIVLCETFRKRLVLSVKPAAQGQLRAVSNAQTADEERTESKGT

Compound | pKi
COC(=O)Nc1ccc2c(c1)C[C@@H](CN1CC[C@@H](n3c(C)nc4cc(C)ccc43)[C@H](OC)C1)C2 | 7.70
Cc1ccc2c(c1)nc(C)n2C1CCN(CCCc2cccc(NC(=O)C(C)C)c2)CC1 | 7.60
CO[C@@H]1CN(C[C@H]2Cc3ccc(C#N)cc3C2)CC[C@H]1n1c(C(C)(C)O)nc2cc(C)ccc21 | 8.52
CO[C@@H]1CN(C[C@H]2Cc3ccc(Br)cc3C2)CC[C@H]1n1c(C(C)(C)O)nc2cc(C)ccc21 | 8.00

molecular target: T1, Melanin-concentrating hormone receptor 1; experiment: Antagonist activity at MCHR1 by cAMP assay; type: functional; conditions: not given

Compound | pEC50 | Efficacy [%]
COC(=O)Nc1ccc2c(c1)C[C@@H](CN1CC[C@@H](n3c(C)nc4cc(C)ccc43)[C@H](OC)C1)C2 | 7.70 | 81
Cc1ccc2c(c1)nc(C)n2C1CCN(CCCc2cccc(NC(=O)C(C)C)c2)CC1 | 6.76 | 96
CO[C@@H]1CN(C[C@H]2Cc3ccc(C#N)cc3C2)CC[C@H]1n1c(C(C)(C)O)nc2cc(C)ccc21 | 7.77 | 85
CO[C@@H]1CN(C[C@H]2Cc3ccc(Br)cc3C2)CC[C@H]1n1c(C(C)(C)O)nc2cc(C)ccc21 | 7.52 | 98

molecular target: D(3) dopamine receptor (Homo sapiens) (UniProt P35462); experiment: Inhibition of dopamine D3 receptor at 10 uM; conditions: not given
Sequence (P35462 whole entry): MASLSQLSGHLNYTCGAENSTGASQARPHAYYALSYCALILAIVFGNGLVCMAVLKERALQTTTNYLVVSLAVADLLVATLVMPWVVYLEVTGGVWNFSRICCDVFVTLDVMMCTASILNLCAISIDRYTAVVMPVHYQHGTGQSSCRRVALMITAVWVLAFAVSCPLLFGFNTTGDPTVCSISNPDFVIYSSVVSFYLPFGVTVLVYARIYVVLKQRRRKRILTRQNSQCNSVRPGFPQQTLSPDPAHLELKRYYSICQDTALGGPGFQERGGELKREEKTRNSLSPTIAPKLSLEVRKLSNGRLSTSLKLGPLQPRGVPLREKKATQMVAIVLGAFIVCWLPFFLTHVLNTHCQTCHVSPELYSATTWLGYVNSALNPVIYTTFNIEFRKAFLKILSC

Compound | inhibition [%]
COC(=O)Nc1ccc2c(c1)C[C@@H](CN1CC[C@@H](n3c(C)nc4cc(C)ccc43)[C@H](OC)C1)C2 | 28
CO[C@@H]1CN(C[C@H]2Cc3ccc(C#N)cc3C2)CC[C@H]1n1c(C(C)(C)O)nc2cc(C)ccc21 | 22
CO[C@@H]1CN(C[C@H]2Cc3ccc(Br)cc3C2)CC[C@H]1n1c(C(C)(C)O)nc2cc(C)ccc21 | 79

molecular target: T2, Alpha-2A adrenergic receptor (Homo sapiens) (UniProt P08913); experiment: Inhibition of adrenergic alpha2A receptor at 10 uM; conditions: not given
T2 sequence (whole entry): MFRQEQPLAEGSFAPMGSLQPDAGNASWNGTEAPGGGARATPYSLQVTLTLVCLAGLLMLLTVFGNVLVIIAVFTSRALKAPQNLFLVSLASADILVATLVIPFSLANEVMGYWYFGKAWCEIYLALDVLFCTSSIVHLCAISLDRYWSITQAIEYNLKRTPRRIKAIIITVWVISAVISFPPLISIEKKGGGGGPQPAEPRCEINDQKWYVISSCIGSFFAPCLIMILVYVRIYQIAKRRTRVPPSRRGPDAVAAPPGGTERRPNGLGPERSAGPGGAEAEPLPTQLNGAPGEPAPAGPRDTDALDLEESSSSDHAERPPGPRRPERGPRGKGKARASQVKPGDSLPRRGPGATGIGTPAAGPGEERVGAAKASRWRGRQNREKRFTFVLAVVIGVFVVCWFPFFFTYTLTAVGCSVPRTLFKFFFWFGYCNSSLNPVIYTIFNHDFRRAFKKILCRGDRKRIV

Compound | inhibition [%]
COC(=O)Nc1ccc2c(c1)C[C@@H](CN1CC[C@@H](n3c(C)nc4cc(C)ccc43)[C@H](OC)C1)C2 | 14
Cc1ccc2c(c1)nc(C)n2C1CCN(CCCc2cccc(NC(=O)C(C)C)c2)CC1 | 37
CO[C@@H]1CN(C[C@H]2Cc3ccc(C#N)cc3C2)CC[C@H]1n1c(C(C)(C)O)nc2cc(C)ccc21 | 12
CO[C@@H]1CN(C[C@H]2Cc3ccc(Br)cc3C2)CC[C@H]1n1c(C(C)(C)O)nc2cc(C)ccc21 | 34

molecular target: T3, Muscarinic acetylcholine receptor M2 (Homo sapiens) (UniProt P08172); experiment: Inhibition of muscarinic M2 receptor at 10 uM; conditions: not given
T3 sequence (whole entry): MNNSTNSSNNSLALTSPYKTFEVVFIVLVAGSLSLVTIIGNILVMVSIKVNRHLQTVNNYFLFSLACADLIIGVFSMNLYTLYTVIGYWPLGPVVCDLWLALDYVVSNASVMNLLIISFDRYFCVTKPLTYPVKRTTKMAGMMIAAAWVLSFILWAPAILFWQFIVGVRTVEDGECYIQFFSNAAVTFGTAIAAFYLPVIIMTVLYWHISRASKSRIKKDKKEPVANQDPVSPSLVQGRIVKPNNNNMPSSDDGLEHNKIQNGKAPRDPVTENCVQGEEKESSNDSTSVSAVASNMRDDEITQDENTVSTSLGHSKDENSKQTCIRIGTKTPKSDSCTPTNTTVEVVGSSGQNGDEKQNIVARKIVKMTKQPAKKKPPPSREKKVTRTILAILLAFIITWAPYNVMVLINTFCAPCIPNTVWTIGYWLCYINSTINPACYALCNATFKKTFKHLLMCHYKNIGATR

Compound | inhibition [%]
COC(=O)Nc1ccc2c(c1)C[C@@H](CN1CC[C@@H](n3c(C)nc4cc(C)ccc43)[C@H](OC)C1)C2 | 22
Cc1ccc2c(c1)nc(C)n2C1CCN(CCCc2cccc(NC(=O)C(C)C)c2)CC1 | 18
CO[C@@H]1CN(C[C@H]2Cc3ccc(C#N)cc3C2)CC[C@H]1n1c(C(C)(C)O)nc2cc(C)ccc21 | 3
CO[C@@H]1CN(C[C@H]2Cc3ccc(Br)cc3C2)CC[C@H]1n1c(C(C)(C)O)nc2cc(C)ccc21 | -8

molecular target: T4, 5-hydroxytryptamine receptor 2C (Homo sapiens) (UniProt P28335); experiment: Inhibition of 5HT2C receptor at 10 uM; conditions: not given
T4 sequence (whole entry): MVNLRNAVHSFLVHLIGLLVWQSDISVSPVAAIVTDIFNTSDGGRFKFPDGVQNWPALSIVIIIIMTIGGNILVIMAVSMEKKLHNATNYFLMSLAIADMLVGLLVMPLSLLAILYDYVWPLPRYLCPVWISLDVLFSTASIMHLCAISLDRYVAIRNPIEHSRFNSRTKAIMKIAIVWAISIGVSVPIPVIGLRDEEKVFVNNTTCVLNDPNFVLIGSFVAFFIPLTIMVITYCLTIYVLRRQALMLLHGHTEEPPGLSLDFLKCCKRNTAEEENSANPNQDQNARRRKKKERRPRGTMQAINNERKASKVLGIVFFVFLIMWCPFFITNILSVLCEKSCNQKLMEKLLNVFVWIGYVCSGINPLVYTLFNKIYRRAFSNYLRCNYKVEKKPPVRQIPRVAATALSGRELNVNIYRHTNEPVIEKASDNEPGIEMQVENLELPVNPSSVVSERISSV

Compound | inhibition [%]
COC(=O)Nc1ccc2c(c1)C[C@@H](CN1CC[C@@H](n3c(C)nc4cc(C)ccc43)[C@H](OC)C1)C2 | 8
Cc1ccc2c(c1)nc(C)n2C1CCN(CCCc2cccc(NC(=O)C(C)C)c2)CC1 | 4
CO[C@@H]1CN(C[C@H]2Cc3ccc(Br)cc3C2)CC[C@H]1n1c(C(C)(C)O)nc2cc(C)ccc21 | 14

molecular target: Somatostatin receptor type 5 (Homo sapiens) (UniProt P35346); experiment: Inhibition of SST5 receptor at 10 uM; conditions: not given
Sequence (P35346 whole entry): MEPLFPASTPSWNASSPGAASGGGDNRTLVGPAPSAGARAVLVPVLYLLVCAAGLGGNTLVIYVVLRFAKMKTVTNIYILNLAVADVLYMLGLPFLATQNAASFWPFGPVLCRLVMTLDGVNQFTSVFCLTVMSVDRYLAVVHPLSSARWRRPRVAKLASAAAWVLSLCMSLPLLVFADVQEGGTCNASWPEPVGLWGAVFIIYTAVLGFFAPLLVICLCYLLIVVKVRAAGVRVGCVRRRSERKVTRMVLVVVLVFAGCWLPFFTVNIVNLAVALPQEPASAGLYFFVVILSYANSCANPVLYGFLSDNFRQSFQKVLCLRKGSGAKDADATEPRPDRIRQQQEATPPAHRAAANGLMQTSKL

Compound | inhibition [%]
COC(=O)Nc1ccc2c(c1)C[C@@H](CN1CC[C@@H](n3c(C)nc4cc(C)ccc43)[C@H](OC)C1)C2 | 10
Cc1ccc2c(c1)nc(C)n2C1CCN(CCCc2cccc(NC(=O)C(C)C)c2)CC1 | 13
CO[C@@H]1CN(C[C@H]2Cc3ccc(C#N)cc3C2)CC[C@H]1n1c(C(C)(C)O)nc2cc(C)ccc21 | 23

molecular target: Sodium-dependent noradrenaline transporter (Homo sapiens) (UniProt P23975); experiment: Inhibition of NET at 10 uM; conditions: not given
Sequence (P23975 whole entry): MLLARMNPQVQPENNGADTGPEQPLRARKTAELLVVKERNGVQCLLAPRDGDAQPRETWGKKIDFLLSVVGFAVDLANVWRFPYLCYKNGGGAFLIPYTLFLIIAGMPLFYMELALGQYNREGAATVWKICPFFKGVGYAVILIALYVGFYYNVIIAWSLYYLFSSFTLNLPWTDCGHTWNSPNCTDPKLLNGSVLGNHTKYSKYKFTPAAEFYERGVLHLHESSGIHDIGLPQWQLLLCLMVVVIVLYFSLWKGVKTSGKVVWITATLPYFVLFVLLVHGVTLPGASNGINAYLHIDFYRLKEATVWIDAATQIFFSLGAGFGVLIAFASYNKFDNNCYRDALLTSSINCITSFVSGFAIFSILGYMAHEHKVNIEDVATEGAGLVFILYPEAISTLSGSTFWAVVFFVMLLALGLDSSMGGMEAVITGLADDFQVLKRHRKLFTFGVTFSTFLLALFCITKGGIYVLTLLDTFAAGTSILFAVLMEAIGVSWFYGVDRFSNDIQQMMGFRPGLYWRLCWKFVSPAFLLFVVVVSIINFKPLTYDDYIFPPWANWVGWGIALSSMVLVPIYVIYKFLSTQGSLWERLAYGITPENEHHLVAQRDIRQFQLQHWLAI

Compound | inhibition [%]
COC(=O)Nc1ccc2c(c1)C[C@@H](CN1CC[C@@H](n3c(C)nc4cc(C)ccc43)[C@H](OC)C1)C2 | 64
Cc1ccc2c(c1)nc(C)n2C1CCN(CCCc2cccc(NC(=O)C(C)C)c2)CC1 | 57
CO[C@@H]1CN(C[C@H]2Cc3ccc(C#N)cc3C2)CC[C@H]1n1c(C(C)(C)O)nc2cc(C)ccc21 | 12
CO[C@@H]1CN(C[C@H]2Cc3ccc(Br)cc3C2)CC[C@H]1n1c(C(C)(C)O)nc2cc(C)ccc21 | 77

molecular target: Sodium-dependent serotonin transporter (Homo sapiens) (UniProt P31645); experiment: Inhibition of SERT at 10 uM; conditions: not given
Sequence (P31645 whole entry, looked up): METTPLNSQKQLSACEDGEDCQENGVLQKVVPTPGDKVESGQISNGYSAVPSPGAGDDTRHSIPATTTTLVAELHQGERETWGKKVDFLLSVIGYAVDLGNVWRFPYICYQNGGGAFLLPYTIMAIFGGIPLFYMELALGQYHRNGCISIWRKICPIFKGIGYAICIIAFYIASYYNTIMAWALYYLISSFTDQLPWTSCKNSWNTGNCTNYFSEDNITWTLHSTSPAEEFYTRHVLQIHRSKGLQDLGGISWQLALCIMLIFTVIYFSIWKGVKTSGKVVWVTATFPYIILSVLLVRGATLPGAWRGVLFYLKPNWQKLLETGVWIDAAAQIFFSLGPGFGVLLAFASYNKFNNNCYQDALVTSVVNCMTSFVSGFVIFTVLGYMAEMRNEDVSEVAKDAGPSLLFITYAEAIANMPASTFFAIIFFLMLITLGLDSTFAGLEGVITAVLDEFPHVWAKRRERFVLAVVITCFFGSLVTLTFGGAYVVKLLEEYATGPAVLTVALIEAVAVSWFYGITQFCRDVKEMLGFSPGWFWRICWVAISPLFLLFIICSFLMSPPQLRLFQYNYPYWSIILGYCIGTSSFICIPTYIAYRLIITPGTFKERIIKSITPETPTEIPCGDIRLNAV

Compound | inhibition [%]
COC(=O)Nc1ccc2c(c1)C[C@@H](CN1CC[C@@H](n3c(C)nc4cc(C)ccc43)[C@H](OC)C1)C2 | 95
Cc1ccc2c(c1)nc(C)n2C1CCN(CCCc2cccc(NC(=O)C(C)C)c2)CC1 | 83
CO[C@@H]1CN(C[C@H]2Cc3ccc(C#N)cc3C2)CC[C@H]1n1c(C(C)(C)O)nc2cc(C)ccc21 | 6
CO[C@@H]1CN(C[C@H]2Cc3ccc(Br)cc3C2)CC[C@H]1n1c(C(C)(C)O)nc2cc(C)ccc21 | 28

molecular target: T5, 5-hydroxytryptamine receptor 1A (Homo sapiens) (UniProt P08908); experiment: Inhibition of 5HT1A receptor at 10 uM; conditions: not given
T5 sequence (whole entry): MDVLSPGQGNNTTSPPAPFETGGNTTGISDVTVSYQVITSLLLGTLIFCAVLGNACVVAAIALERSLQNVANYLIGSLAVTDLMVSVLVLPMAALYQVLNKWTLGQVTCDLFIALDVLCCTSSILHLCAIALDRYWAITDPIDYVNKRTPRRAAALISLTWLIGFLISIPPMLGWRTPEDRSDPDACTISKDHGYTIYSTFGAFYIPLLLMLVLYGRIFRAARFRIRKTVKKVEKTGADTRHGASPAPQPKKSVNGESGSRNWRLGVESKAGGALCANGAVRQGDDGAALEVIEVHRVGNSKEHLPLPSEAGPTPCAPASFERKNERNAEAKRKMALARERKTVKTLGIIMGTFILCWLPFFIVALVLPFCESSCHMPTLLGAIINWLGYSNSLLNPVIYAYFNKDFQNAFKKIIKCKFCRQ

Compound | inhibition [%]
COC(=O)Nc1ccc2c(c1)C[C@@H](CN1CC[C@@H](n3c(C)nc4cc(C)ccc43)[C@H](OC)C1)C2 | 29
CO[C@@H]1CN(C[C@H]2Cc3ccc(C#N)cc3C2)CC[C@H]1n1c(C(C)(C)O)nc2cc(C)ccc21 | 14
CO[C@@H]1CN(C[C@H]2Cc3ccc(Br)cc3C2)CC[C@H]1n1c(C(C)(C)O)nc2cc(C)ccc21 | 17

system: not listed separately; experiment: AUC in Sprague-Dawley rat plasma at 5 mg/kg, iv or 30 mg/kg, po; type: ADME, organism-based; conditions: not given

Compound | AUC [ng·h/mL]
CO[C@@H]1CN(C[C@H]2Cc3ccc(C#N)cc3C2)CC[C@H]1n1c(C(C)(C)O)nc2cc(C)ccc21 | 4730

system: not listed separately; experiment: Cmax in Sprague-Dawley rat at 5 mg/kg, iv or 30 mg/kg, po; type: ADME, organism-based; conditions: in vivo

Compound | Cmax [ng/mL]
CO[C@@H]1CN(C[C@H]2Cc3ccc(C#N)cc3C2)CC[C@H]1n1c(C(C)(C)O)nc2cc(C)ccc21 | 1300

system: not listed separately; experiment: Clearance in Sprague-Dawley rat at 5 mg/kg, iv or 30 mg/kg, po; type: ADME, organism-based; conditions: in vivo

Compound | clearance [mL/min/kg]
CO[C@@H]1CN(C[C@H]2Cc3ccc(C#N)cc3C2)CC[C@H]1n1c(C(C)(C)O)nc2cc(C)ccc21 | 49.5

system: not listed separately; experiment: Half life in Sprague-Dawley rat at 5 mg/kg, iv or 30 mg/kg, po; type: ADME, organism-based; conditions: in vivo

Compound | half-life [h]
CO[C@@H]1CN(C[C@H]2Cc3ccc(C#N)cc3C2)CC[C@H]1n1c(C(C)(C)O)nc2cc(C)ccc21 | 1.9

system: not listed separately; experiment: Volume of distribution at steady state in Sprague-Dawley rat at 5 mg/kg, iv or 30 mg/kg, po; type: ADME, organism-based; conditions: in vivo, read-out: Vdss

Compound | Vd [L/kg]
CO[C@@H]1CN(C[C@H]2Cc3ccc(C#N)cc3C2)CC[C@H]1n1c(C(C)(C)O)nc2cc(C)ccc21 | 3.6

system: not listed separately; experiment: Oral bioavailability in Sprague-Dawley rat at 30 mg/kg; type: ADME, organism-based; conditions: in vivo

Compound | bioavailability [%]
CO[C@@H]1CN(C[C@H]2Cc3ccc(C#N)cc3C2)CC[C@H]1n1c(C(C)(C)O)nc2cc(C)ccc21 | 47

system: not listed separately; experiment: Ratio of drug level in brain to plasma in Sprague-Dawley rat after 5 mins; type: ADME; conditions: brain and plasma, read-out: BPR

Compound | Kp at 5 min
CO[C@@H]1CN(C[C@H]2Cc3ccc(C#N)cc3C2)CC[C@H]1n1c(C(C)(C)O)nc2cc(C)ccc21 | 0.9

system: Rattus norvegicus; experiment: Reduction of food intake in high fat diet fed Sprague-Dawley rat at 30 mg/kg, po bid; type: functional; set-up: scale not given: the % may be the effect or the level left; conditions: not given

Compound | Activity [%]
CO[C@@H]1CN(C[C@H]2Cc3ccc(C#N)cc3C2)CC[C@H]1n1c(C(C)(C)O)nc2cc(C)ccc21 | 28

system: Rattus norvegicus; experiment: Reduction of body weight in high fat diet fed Sprague-Dawley rat at 30 mg/kg, po bid after 12 weeks; type: functional; set-up: scale not given: the % may be the effect or the level left; conditions: not given

Compound | Activity [%]
CO[C@@H]1CN(C[C@H]2Cc3ccc(C#N)cc3C2)CC[C@H]1n1c(C(C)(C)O)nc2cc(C)ccc21 | -0.7

species: Rattus norvegicus; experiment: Toxicity in high fat diet fed Sprague-Dawley rat after 12 weeks; type: organism-based; conditions: in vivo, 2016 h

Compound | Activity
CO[C@@H]1CN(C[C@H]2Cc3ccc(C#N)cc3C2)CC[C@H]1n1c(C(C)(C)O)nc2cc(C)ccc21 | Non-toxic
